The record followed here is ChEMBL document CHEMBL4392848, “Proline-based hydroxamates targeting the zinc-dependent deacetylase LpxC: Synthesis, antibacterial properties, and docking studies” (Bioorg Med Chem, 2019).

Molecules are shown by their SMILES. pIC50, pKi: −log10 of the molar value. In brackets after ≈: the same amount, converted by molar mass.

One experiment relates to Citrobacter freundii. Briefly: Antibacterial activity against Citrobacter freundii assessed as diameter of inhibition zone measured after 24 hrs by agar disc diffusion method. It is filed as functional.
For another experiment, the system named is Enterobacter cloacae. In words: Antibacterial activity against Enterobacter cloacae assessed as diameter of inhibition zone measured after 24 hrs by agar disc diffusion method. In kind it is functional.
In a further experiment the test system is Klebsiella pneumoniae. Briefly: Antibacterial activity against Klebsiella pneumoniae assessed as diameter of inhibition zone measured after 24 hrs by agar disc diffusion method. In kind it is functional.
A further experiment has as its system Proteus vulgaris. In words: Antibacterial activity against Proteus vulgaris assessed as diameter of inhibition zone measured after 24 hrs by agar disc diffusion method. It is filed as functional.
The next experiment has as its system Pseudomonas aeruginosa. Briefly: Antibacterial activity against Pseudomonas aeruginosa assessed as diameter of inhibition zone measured after 24 hrs by agar disc diffusion method. It is filed as functional.
Experiment [1] in a line: Inhibition of Escherichia coli LpxC C63A mutant using UDP-3-O-[(R)-3-hydroxymyristoyl]-N-acetylglucosamine as substrate measured after 30 mins by fluorescence based microplate assay.
In the next experiment the test system is Klebsiella aerogenes. Briefly: Antibacterial activity against Enterobacter aerogenes assessed as diameter of inhibition zone measured after 24 hrs by agar disc diffusion method. It is filed as functional.
In experiment [2] the test system is Escherichia coli. Briefly: Antibacterial activity against Escherichia coli D22 measured after 20 hrs by microdilution method. In kind it is functional. The settings on record: D22, 20 h.
Experiment [3] relates to Escherichia coli. Briefly: Antibacterial activity against Escherichia coli D22 assessed as diameter of inhibition zone measured after overnight incubation by agar disc diffusion method. In kind it is functional.
Experiment [4] concerns Escherichia coli. In words: Antibacterial activity against Escherichia coli BL21(DE3) measured after 20 hrs by microdilution method. It is filed as functional.
Experiment [5] has as its system Escherichia coli. In words: Antibacterial activity against Escherichia coli BL21(DE3) assessed as diameter of inhibition zone measured after overnight incubation by agar disc diffusion method. In kind it is functional.
The test system of another experiment is Klebsiella oxytoca. Briefly: Antibacterial activity against Klebsiella oxytoca assessed as diameter of inhibition zone measured after 24 hrs by agar disc diffusion method. It is filed as functional.
The subject of another experiment is Proteus mirabilis. In words: Antibacterial activity against Proteus mirabilis assessed as diameter of inhibition zone measured after 24 hrs by agar disc diffusion method. It is filed as functional.

Turning to `O=C(NO)[C@@H]1CCCN1C(=O)c1ccc(C#Cc2ccccc2)cc1`, the “diameter of the inhibition zone (DIZ)” value with Citrobacter freundii was 8 mm; in the experiment on Enterobacter cloacae, 8 mm; in the experiment on Klebsiella pneumoniae it was below 6 mm; in the experiment with Proteus vulgaris it was 7 mm; in the experiment with Pseudomonas aeruginosa, below 6 mm; with Klebsiella aerogenes, below 6 mm. Moreover, the “diameter of the inhibition zone (DIZ)” value with Escherichia coli [3] is on record as 12 mm; with Escherichia coli [5] it was below 6 mm; in the experiment with Klebsiella oxytoca, 8 mm; with Proteus mirabilis it was below 6 mm. This compound also showed a pIC50 in experiment [1] below 3.70. In [1], this compound had a negative-log Ki (pKi) below 4.56. In addition, the MIC with Escherichia coli [2] was 128 µM (≈ 42.8 µg/mL); against Escherichia coli [4] it was above 256 µM.

Take `O=C(NO)[C@@H]1C[C@H](O)CN1C(=O)c1ccc(C#Cc2ccccc2)cc1`: the “diameter of the inhibition zone (DIZ)” value is on record as 7 mm in the experiment with Citrobacter freundii; below 6 mm with Enterobacter cloacae; below 6 mm in the experiment on Klebsiella pneumoniae; 7 mm in the experiment on Proteus vulgaris; below 6 mm with Pseudomonas aeruginosa; below 6 mm in the experiment on Klebsiella aerogenes. Further, the “diameter of the inhibition zone (DIZ)” value in the experiment on Escherichia coli [3] is listed as 14.3 mm; in the experiment on Escherichia coli [5], below 6 mm; in the experiment on Klebsiella oxytoca, 7 mm; in the experiment on Proteus mirabilis, 7 mm. Further, the pIC50 in experiment [1] is below 3.70. In [1], this compound had a pKi below 4.56. In addition, the MIC was 64 µM (≈ 22.4 µg/mL) against Escherichia coli [2] and above 256 µM with Escherichia coli [4].

`CN(C)c1ccc(C#Cc2ccc(C(=O)N3C[C@@H](O)C[C@H]3C(=O)NO)cc2)cc1`: the “diameter of the inhibition zone (DIZ)” value in the experiment on Citrobacter freundii is given as 9 mm; in the experiment on Enterobacter cloacae, 8 mm; in the experiment with Klebsiella pneumoniae, 9 mm; in the experiment on Proteus vulgaris, below 6 mm; in the experiment on Pseudomonas aeruginosa it was below 6 mm; with Klebsiella aerogenes it was 9 mm. In addition, the “diameter of the inhibition zone (DIZ)” value in the experiment on Escherichia coli [3] is 13 mm; with Escherichia coli [5], below 6 mm; with Klebsiella oxytoca it was 8 mm; in the experiment with Proteus mirabilis, 8 mm. Moreover, the pIC50 in experiment [1] is 4.78. In experiment [1], this compound gave a pKi of 5.64. The MIC against Escherichia coli [2] was found to be 32 µM (≈ 12.6 µg/mL); against Escherichia coli [4], 256 µM (≈ 101 µg/mL).

With `O=C(NO)[C@@H]1C[C@H](O)CN1C(=O)c1ccc(C#Cc2ccc(CN3CCCCC3)cc2)cc1`, the “diameter of the inhibition zone (DIZ)” value in the experiment on Citrobacter freundii is 9 mm; in the experiment on Enterobacter cloacae, below 6 mm; with Klebsiella pneumoniae, 9 mm; with Proteus vulgaris, 13 mm; in the experiment with Pseudomonas aeruginosa, below 6 mm; in the experiment on Klebsiella aerogenes it was 10 mm. Also, the “diameter of the inhibition zone (DIZ)” value is on record as 19.2 mm in the experiment on Escherichia coli [3], below 6 mm in the experiment with Escherichia coli [5], 9 mm in the experiment with Klebsiella oxytoca and 11 mm in the experiment with Proteus mirabilis. For the same compound, the pIC50 in [1] is 4.26. In experiment [1], the pKi is 5.12. The MIC is 32 µM (≈ 14.3 µg/mL) in the experiment on Escherichia coli [2] and above 256 µM against Escherichia coli [4].

With `O=C(NO)[C@@H]1CCCN1C(=O)c1ccc(C#Cc2ccc(CN3CCCCC3)cc2)cc1`, the “diameter of the inhibition zone (DIZ)” value in the experiment on Citrobacter freundii is recorded as 8 mm; in the experiment on Enterobacter cloacae, 10 mm; in the experiment on Klebsiella pneumoniae, 13 mm; with Proteus vulgaris it was 11 mm; in the experiment on Pseudomonas aeruginosa, below 6 mm; with Klebsiella aerogenes, 12 mm. The “diameter of the inhibition zone (DIZ)” value in the experiment with Escherichia coli [3] is 18.7 mm; in the experiment on Escherichia coli [5], 7 mm; with Klebsiella oxytoca, 9 mm; with Proteus mirabilis, 10 mm. The compound also showed a pIC50 in experiment [1] below 3.70. Also, in [1], the pKi was below 4.56. The MIC against Escherichia coli [2] was 128 µM (≈ 55.2 µg/mL); in the experiment with Escherichia coli [4], above 256 µM.

For `O=C(NO)[C@@H]1CCCN1C(=O)c1ccc(C#Cc2ccc(CN3CCSCC3)cc2)cc1`, the “diameter of the inhibition zone (DIZ)” value is recorded as 14 mm with Citrobacter freundii; 14 mm in the experiment on Enterobacter cloacae; 18 mm in the experiment with Klebsiella pneumoniae; 10 mm in the experiment with Proteus vulgaris; below 6 mm in the experiment with Pseudomonas aeruginosa; 14 mm in the experiment on Klebsiella aerogenes. For the same compound, the “diameter of the inhibition zone (DIZ)” value in the experiment with Escherichia coli [3] was 18 mm; with Escherichia coli [5] it was 12.7 mm; with Klebsiella oxytoca, 11 mm; in the experiment with Proteus mirabilis it was 12 mm. Moreover, the pIC50 in experiment [1] was 4.34. In experiment [1], this compound showed a negative-log Ki (pKi) of 5.21. Moreover, the MIC against Escherichia coli [2] was 8 µM (≈ 3.6 µg/mL); in the experiment on Escherichia coli [4], 128 µM (≈ 57.5 µg/mL).

As for `O=C(NO)[C@@H]1C[C@H](O)CN1C(=O)c1ccc(C#Cc2ccc(CN3CCSCC3)cc2)cc1`, the “diameter of the inhibition zone (DIZ)” value in the experiment on Citrobacter freundii is 14 mm; in the experiment with Enterobacter cloacae, 14 mm; in the experiment on Klebsiella pneumoniae, 15 mm; with Proteus vulgaris, 9 mm; with Pseudomonas aeruginosa it was below 6 mm; with Klebsiella aerogenes it was 18 mm. For the same compound, the “diameter of the inhibition zone (DIZ)” value with Escherichia coli [3] is on record as 21.3 mm; in the experiment on Escherichia coli [5] it was 13 mm; in the experiment on Klebsiella oxytoca, 11 mm; in the experiment with Proteus mirabilis, 10 mm. The compound further had a pIC50 in experiment [1] of 4.48. Also, the pKi in experiment [1] is 5.35. Besides, the MIC in the experiment on Escherichia coli [2] was found to be 8 µM (≈ 3.72 µg/mL); against Escherichia coli [4] it was 128 µM (≈ 59.6 µg/mL).

For `O=C(NO)[C@@H]1C[C@H](O)CN1C(=O)c1ccc(C#Cc2ccc(CN3CCCC3)cc2)cc1`, the “diameter of the inhibition zone (DIZ)” value in the experiment on Citrobacter freundii, in the experiment on Enterobacter cloacae, in the experiment with Klebsiella pneumoniae, with Proteus vulgaris, with Pseudomonas aeruginosa and in the experiment with Klebsiella aerogenes was below 6 mm throughout. Also, the “diameter of the inhibition zone (DIZ)” value in the experiment with Escherichia coli [3] is 14.3 mm; in the experiment with Escherichia coli [5], below 6 mm; in the experiment with Klebsiella oxytoca it was below 6 mm; with Proteus mirabilis it was below 6 mm. This compound also showed a pIC50 in experiment [1] below 3.70. The pKi in experiment [1] is below 4.56. Moreover, the MIC in the experiment with Escherichia coli [2] is 64 µM (≈ 27.7 µg/mL); against Escherichia coli [4] it was above 256 µM.

For the compound `O=C(NO)[C@@H]1CCCN1Cc1ccc(C#Cc2ccc(CN3CCSCC3)cc2)cc1`, the “diameter of the inhibition zone (DIZ)” value in the experiment on Citrobacter freundii is reported as 13 mm; in the experiment on Enterobacter cloacae, 14 mm; in the experiment with Klebsiella pneumoniae, 14 mm; with Proteus vulgaris it was below 6 mm; with Pseudomonas aeruginosa it was below 6 mm; in the experiment on Klebsiella aerogenes it was 13 mm. In addition, the “diameter of the inhibition zone (DIZ)” value in the experiment on Escherichia coli [3] was found to be 17.7 mm; in the experiment with Escherichia coli [5], 10.7 mm; with Klebsiella oxytoca, 11 mm; in the experiment with Proteus mirabilis, 8 mm. In experiment [1], this compound had a pIC50 of 5.09. In [1], this compound showed a pKi of 5.96. For the same compound, the MIC in the experiment on Escherichia coli [2] was found to be 1 µM (≈ 0.436 µg/mL); against Escherichia coli [4] it was 64 µM (≈ 27.9 µg/mL).

Consider `O=C(NO)[C@@H]1C[C@H](O)CN1C(=O)c1ccc(C#Cc2ccc(CN3CCC(O)CC3)cc2)cc1`, for which the “diameter of the inhibition zone (DIZ)” value with Citrobacter freundii is recorded as below 6 mm; in the experiment with Enterobacter cloacae, below 6 mm; with Klebsiella pneumoniae, below 6 mm; with Proteus vulgaris it was below 6 mm; in the experiment with Pseudomonas aeruginosa, below 6 mm; in the experiment on Klebsiella aerogenes it was 9 mm. Further, the “diameter of the inhibition zone (DIZ)” value was 23.7 mm in the experiment on Escherichia coli [3], 15.7 mm in the experiment with Escherichia coli [5], below 6 mm in the experiment on Klebsiella oxytoca and 11 mm in the experiment with Proteus mirabilis. This compound also had a pIC50 in experiment [1] of 4.36. The compound further gave a pKi in experiment [1] of 5.21. The values for the MIC in the experiment with Escherichia coli [2] and against Escherichia coli [4] were 4 µM (≈ 1.85 µg/mL) and 64 µM (≈ 29.7 µg/mL), respectively.
